From the CheMixHub ionic liquid set

Assay: xn = mol fraction of the nth substance listed
Settings: 100 kPa

CC[n+]1ccn(C)c1.O=S(=O)([O-])O + Cc1ncc(C[n+]2csc(CCO)c2C)c(N)n1.Cl.[Cl-] + O
viscosity [mPa·s]
Settings | 293.15 K | 298.15 K | 303.15 K | 308.15 K | 313.15 K | 318.15 K
x2 = 0, x1 = 0.0009002 | 1.05 | 0.94 | 0.84 | 0.76 | 0.69 | 0.65
x2 = 0, x1 = 0.001799 | 1.07 | 0.95 | 0.85 | 0.77 | 0.7 | 0.64
x2 = 0, x1 = 0.002696 | 1.08 | 0.96 | 0.86 | 0.78 | 0.71 | 0.64
x2 = 0.0002717, x1 = 0.0008999 | 1.06 | 0.95 | 0.85 | 0.77 | 0.7 | 0.66
x2 = 0.0002739, x1 = 0.001798 | 1.08 | 0.96 | 0.86 | 0.78 | 0.71 | 0.65
x2 = 0.0002783, x1 = 0.002695 | 1.09 | 0.97 | 0.87 | 0.79 | 0.72 | 0.65
x2 = 0.0005451, x1 = 0.0008997 | 1.07 | 0.96 | 0.85 | 0.78 | 0.71 | 0.67
x2 = 0.0005496, x1 = 0.001798 | 1.09 | 0.97 | 0.87 | 0.79 | 0.72 | 0.66
x2 = 0.0005575, x1 = 0.002694 | 1.1 | 0.98 | 0.88 | 0.8 | 0.73 | 0.66
x2 = 0.0008249, x1 = 0.001797 | 1.1 | 0.98 | 0.88 | 0.8 | 0.73 | 0.67
x2 = 0.0008327, x1 = 0.002693 | 1.11 | 0.99 | 0.89 | 0.81 | 0.73 | 0.67
x2 = 0.0008356, x1 = 0.0008994 | 1.08 | 0.97 | 0.86 | 0.79 | 0.72 | 0.68
x2 = 0.00109, x1 = 0.0008992 | 1.09 | 0.98 | 0.87 | 0.8 | 0.73 | 0.68
x2 = 0.001102, x1 = 0.001797 | 1.11 | 0.98 | 0.89 | 0.81 | 0.74 | 0.68
x2 = 0.001112, x1 = 0.002693 | 1.12 | 1 | 0.9 | 0.81 | 0.74 | 0.68
x2 = 0.001362, x1 = 0.000899 | 1.1 | 0.99 | 0.88 | 0.8 | 0.74 | 0.69
x2 = 0.001376, x1 = 0.001796 | 1.11 | 0.99 | 0.9 | 0.82 | 0.75 | 0.69
x2 = 0.001389, x1 = 0.002692 | 1.13 | 1.01 | 0.91 | 0.82 | 0.75 | 0.69
x2 = 0.001634, x1 = 0.0008987 | 1.1 | 1 | 0.89 | 0.81 | 0.75 | 0.7
x2 = 0.001651, x1 = 0.001796 | 1.12 | 1 | 0.91 | 0.83 | 0.76 | 0.7
x2 = 0.001665, x1 = 0.002691 | 1.14 | 1.02 | 0.92 | 0.83 | 0.76 | 0.7
x2 = 0.001907, x1 = 0.0008985 | 1.11 | 1.01 | 0.9 | 0.82 | 0.76 | 0.71
x2 = 0.001926, x1 = 0.001795 | 1.13 | 1.01 | 0.92 | 0.84 | 0.77 | 0.71
x2 = 0.001943, x1 = 0.00269 | 1.15 | 1.03 | 0.93 | 0.84 | 0.77 | 0.71
